Starred links: 1 amine or outer side, 2 acyl side, 3 side chain; linkers in the order of their positions; H or OH if unused. Positions of bridges follow the written chain, without caps; N, C: chain ends. Non-standard residues stand in square brackets, D forms with d. Residues, ends and D or L forms follow the SMILES beside them. *: point of attachment. Leu(3R-OH,Nα-propionyl) = CCC(=O)N[C@H](C(=O)*)[C@H](O)C(C)C; X1 = CC(C)[C@@H](O[*:3])[C@H](N[*:1])C(=O)[*:2]; NMeT = CN[C@H](C(=O)O)[C@@H](C)O; dPhLac = O=C(O)[C@H](O)Cc1ccccc1; NMeA = CN[C@@H](C)C(=O)O; NMeDha = C=C(NC)C(=O)O
How the values were obtained:
[1] = molecular target: T1, chimeric Gαi/q protein (FR-sensitive Gαi mutant) (Homo sapiens, UniProt P63096, H188P/K180P/K54R/T187Y/V185I/V50I/V72L/Y69F); test: Radioligand binding ([3H]PSB-15900 homologous competition, filtration assay); conditions: chimeric Gαi/q on TALON beads, 5 μg protein; [3H]PSB-15900 5 nM; unlabeled FR 0.003-30 μM; 2 h, 4 °C; 50 mM Tris-HCl pH 7.4; one-site homologous equation; mean ± SD of 3 independent experiments in duplicates
T1 construct: made in house; host or cells: E. coli (pET16b)
T1 sequence (P63096 whole entry V50I/K54R/Y69F/V72L/K180P/V185I/T187Y/H188P): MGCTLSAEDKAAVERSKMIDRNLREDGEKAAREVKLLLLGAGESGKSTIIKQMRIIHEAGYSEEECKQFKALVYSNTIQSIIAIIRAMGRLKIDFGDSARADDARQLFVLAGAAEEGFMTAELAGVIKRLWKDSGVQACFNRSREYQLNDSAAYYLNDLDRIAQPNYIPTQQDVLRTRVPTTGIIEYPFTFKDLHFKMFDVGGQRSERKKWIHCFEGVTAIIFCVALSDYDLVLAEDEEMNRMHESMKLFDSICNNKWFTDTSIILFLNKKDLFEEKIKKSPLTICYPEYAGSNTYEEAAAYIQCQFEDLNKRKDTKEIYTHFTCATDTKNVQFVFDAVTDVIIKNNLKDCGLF
Method: The purified chimeric Gαi/q protein was preincubated with TALON immobilized metal affinity chromatography (IMAC) resin beads (Takara Bio) for 1–2 h at 4 °C with gentle shaking (0.025 μL beads per 0.1 mL of protein solution in 50 mM Tris–HCl, pH 7.4; final protein amount per sample: 5 μg). Each sample contained 70 μL of assay buffer (50 mM Tris–HCl, pH 7.4), 5 μL of dimethyl sulfoxide (DMSO) or the test compound (dissolved in DMSO), 50 μL of [^3H]PSB-15900 (FR-derived radioligand; 28 Ci/mmol; Pharmaron, Cardiff, UK)[14] in assay buffer (final concentration: 5 nM) and 125 μL of protein solution. Total binding of [^3H]PSB-15900 was determined using 5 μL of DMSO, and non-specific binding was determined using 5 μL of unlabeled FR900359 (final concentration: 5 μM). For competition binding experiments, dilutions from 30 μM to 0.003 μM of unlabeled FR900359, dissolved in DMSO, were added. Incubation was performed for 2 h at 4 °C with gentle shaking. […]
Multiple regions of the protein are either directly involved in binding of cyclodepsipeptide inhibitors, as shown by structural data on bound YM,[23] or show an indirect response to binding of the inhibitor, as proposed by MD simulations.[13,25] To investigate the conformational response of the G protein to inhibitor binding, structural alterations of the G protein itself must be detected. […]

Gαi/q = test: Structural response to inhibitor binding by DNP-enhanced ssNMR (13C-NCOCX, unique pair labeling); conditions: inhibitor : protein 1.5 : 1, 4 °C overnight, nominal 105 K
Method: The protein response to inhibitor binding was studied by HNCO(CX) experiments with 20 ms mixing time recorded on DNP samples of frozen Gαi/q protein solution. The polarizing agent AsymPolPOK[36] was dried from a chloroform : methanol (1 : 1) stock solution to form a film that was resuspended with 1 mg of protein solution that was concentrated to a volume of 15 μL, subsequently 15 μL of d8-glycerol was added. The final concentration of radical in the mixture with the protein sample in the 3.2 mm NMR rotor was 10 mM. The samples were measured at a DNP setup consisting of a 400 MHz Avance Neo spectrometer (Bruker) with a 3.2 mm Cryo MAS HCN probe (Bruker) and a 263 GHz Gyrotron as microwave source. All experiments were done at a nominal temperature of 105 K. A MAS rate of 8 kHz and proton decoupling of 100 kHz were chosen. To investigate the effects of inhibitor binding, the protein solution was incubated with unlabeled FR or YM from a 10 mM DMSO stock solution at an inhibitor to protein molar ratio of 1.5 : 1 at 4 °C overnight. To study the effects of nucleotide binding, 5 μL of GDP was added to the samples from a 17 mM solution of GDP : MgCl2 (3 : 1 molar ratio) directly into the rotor. The GTP-bound state was generated by subsequent addition of 2 μL of GTP [0.1 M] and 2 μL AlF4 salt solution (150 mM MgCl2, 75 mM NaF, 15 mM AlCl3). DNP enhancement was measured by comparison of ^13C-CP spectra with and without microwave irradiation. Referencing was done indirectly using the right peak of d8-glycerol at 64.78 ppm.
In order to collect information about conformational changes in a spatially resolved manner, a unique pair labeling approach was chosen,[50] resulting in signals in the NMR spectra from a unique pair of neighboring amino acids in NCO type experiments. […] To obtain sufficient signal intensity in the experiments, spectra were recorded using DNP-enhanced ssNMR. […] Under those conditions, the full sampled conformational space is conserved and reflected in NMR line shapes, which can then be analyzed. […]

Row | Compound | Kd [1] | response of switch III (R242-M243) to inhibitor binding (Gαi/q; RM-pair) | response of α5 helix (V335-F336) to inhibitor binding (Gαi/q; VF-pair) | response of switch I (V179-P180) to inhibitor binding (Gαi/q; VP-pair)
1 | C=C1C(=O)N[C@@H](C)C(=O)N(C)[C@@H](C)C(=O)N[C@@H]([C@H](OC(=O)[C@@H](NC(=O)CC)[C@H](O)C(C)C)C(C)C)C(=O)N(C)[C@@H]([C@@H](C)OC)C(=O)O[C@H](C(C)C)[C@H](NC(C)=O)C(=O)O[C@H](Cc2ccccc2)C(=O)N1C [FR, FR900359] (Ac-[X1][dPhLac][NMeDha]A[NMeA][X1](Leu(3R-OH,Nα-propionyl))[NMeT](Me); ester 1-C) | 0.271 ± 0.069 µM | – | – | –
2 | YM-254890 | – | no effects in switch III | minor effects | clear narrowing of the ^13C valine signals

Reference: paper PMC11323312, “Structural response of G protein binding to the cyclodepsipeptide inhibitor FR900359 probed by NMR spectroscopy” (Chemical Science, 2024)
